Data on 2 compounds can be found in patent US20090247644A1, “MEMANTINE FORMULATIONS” (FOREST LABORATORIES HOLDINGS LIMITED, priority 2008, published 2009).

Holding throughout (format): physicochemical
Data set [1] can be described thus: Flowability, Jenike and Johanson Sifting Segregation tester (time for 200 g to fall through hopper orifice). To be noted: 200 g material, hydrochloride. How it is done:
The flowability of the equant-shaped crystals of memantine was measured using a Jenike and Johanson […] Segregation tester (Jenike and Johanson, Tyngsboro, Mass.). The time taken for 200 g of material to fall through the circular orifice of the hopper was measured. Two different hoppers were used: a shallow angle cone (Hopper A, 35° from horizontal) and a steep angle cone (Hopper B, 75° from horizontal). […] See, ASTM Standard D6941-03, and A. Alexander et al., Pharmaceutical Technology, Yearbook 2000, pp. 6-21.

Data set [2] is described as follows: Angle of repose, Hosakawa Micron powder tester. To be noted: hydrochloride. Here is the method:
For pharmaceutical powders, a lower angle of repose value indicates better flow characteristics. The angle of repose was measured using a Hosakawa Micron powder tester, Model PT-N (Hosokawa Micron Powder systems, Summit, N.J.) using the instructions provided by the vendor. Also see Pharmaceutical Dosage Forms, Tablets, Volume 1, Herbert A. Lieberman, Leon Lachman, Joseph B. Schwartz, 1989, 2nd Ed.

Data set [3] can be described thus: Bulk density and tap density, Varian Tapped Density tester. To be noted: hydrochloride. Here is the method: Bulk Density and Apparent Density after Tamping (Tap Density)
The bulk density and apparent density were measured using a Varian Tapped Density tester (Varian Inc.,) using the instructions provided by the vendor. Also see USP 29 (Tap-Bulk-Density).

Data set [4] is described as follows: Particle size distribution by laser diffraction. As to conditions: equant: Helos BF with Rodos; needle: Mastersizer 2000; hydrochloride. Here is the method: The particle size distribution (average d90, d50 and d10 values) of the equant-shaped crystals of memantine was measured by Laser Diffraction technique using a Helos BF with Rodos instrument (Sympatec Inc, Lawrenceville, N.J.). The particle size distribution of the needle-shaped crystals of memantine was measured using a Mastersizer 2000 instrument (Malvern Instruments Limited, Worcestershire, UK).

Data set [5] in a line: Aspect ratio by scanning electron microscopy. To be noted: ratio of maximum length to minimum width; hydrochloride. An excerpt:
The aspect ratio refers to the ratio of the maximum length of a crystal to its minimum width. At an aspect ratio of 1, a crystal has an isometric crystal habit. With the aspect ratio decreasing below 1, the crystal habit becomes more and more plate-like. In contrast, when the aspect ratio increases more and more above 1, the crystal approaches a needle-like crystal habit. In accordance with the present invention, cubic-shaped crystals of memantine hydrochloride have an aspect ratio of preferably below about 5, such as, below about 3 (3.0), e.g., below about 2 (2.0). The lower limit of the aspect ratio is not critical. The aspect ratio is determined by means of scanning electron microscopy (SEM). The sample is spread onto a pure aluminum support and subsequently sputter-coated with a thin layer of Pd/Au (thickness in the nanometer range; sputter coater SCD 030 (Balzers)). Using a JSM 6400 Scanning Electron Microscope (JEOL, Japan) at an acceleration voltage of 20 keV and a working distance of 15 mm, SEM images are taken at 150-fold magnification. Electronic filtering and thresholding is used to improve the separation of particles in binary images from the background. For image analysis, ANALYSIS software version 5.0 (SIS, Muenster, Germany) is used. […]

The mark [6] stands for this setting: Hopper A (shallow angle cone, 35° from horizontal).
The mark [7] stands for this setting: Hopper B (steep angle cone, 75° from horizontal).

Structures can show the parent of a compound that is named as a salt.

Regarding `CC12CC3CC(C)(C1)CC(N)(C3)C2` [Equant-shaped crystals of Memantine HCl, memantine hydrochloride], in data set [1] (setting [6]), the Flowability stood at 38.3 g/s. Besides, the Flowability entry in data set [1] (Hopper A (shallow angle cone, 35° from horizontal), listed as equant-shaped crystals) is “about 38 g/s”. Besides, the Flowability in data set [1] (setting [7]) worked out at 13.6 g/s. In data set [1] (Hopper B (steep angle cone, 75° from horizontal), listed as equant-shaped crystals), the Flowability entry is “about 14 g/s”. For the same compound, the “Angle of Repose” value in data set [2] is recorded as 43.1 °. In data set [3], the “Bulk Density” value turned out to be 0.51 g/cc, the “Compressibility Index” value is given as 16 and the “Tap Density” value worked out at 0.61 g/cc. In data set [4], the “PSD d10” value came out at 10 μm, the “PSD d50” value is on record as 205 μm and the “PSD d90” value was 376 μm. Further, the “Aspect Ratio” value in data set [5] was found to be 1.6.
Take `CC12CC3CC(C)(C1)CC(N)(C3)C2` [Needle-shaped crystals of Memantine HCl, memantine hydrochloride]: in data set [1] (setting [6]), the Flowability entry is given as “Does not flow”. Moreover, the Flowability entry in data set [1] (Hopper A (shallow angle cone, 35° from horizontal), listed as needle-shaped crystals) is recorded as “do not flow”. In addition, the Flowability entry in data set [1] (setting [7]) is “Does not flow”. Moreover, in data set [1] (Hopper B (steep angle cone, 75° from horizontal), listed as needle-shaped crystals), the Flowability entry is “do not flow”. Moreover, in data set [2], the “Angle of Repose” value is on record as 66.2 °. Also, in data set [3], the “Bulk Density” value was 0.30 g/cc, the “Compressibility Index” value amounted to 40 and the “Tap Density” value is reported as 0.50 g/cc. Besides, in data set [4], the “PSD d10” value is given as 18.8 μm, the “PSD d50” value is 113.8 μm and the “PSD d90” value came to 1229.4 μm. The “Aspect Ratio” value in data set [5] stood at 11.4.
